Test results taken from patent publication US20020111274A1, “1-alkyl-3-[1-(substituted phenyl) benzotriazol-6-yl] uracils” (BASF Aktiengesellschaft, priority 2000, published 2002).

Tests used:
Design in all cases: scale not given here
ABUTH Velvetleaf [1] = experiment: Postemergence herbicidal evaluation, ABUTH; assay type: in vivo, Abutilon theophrasti, Medic.; details: postemergence spray, rated about two-three weeks after treatment
In short: (§1)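 Ratings from greenhouse plants scored about two to three weeks after a foliar spray; data from multiple tests averaged. Seedlings about two weeks old received roughly 0.006–0.400 kg/ha active compound in 80/20 acetone/water with 1.0% methylated seed oil.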

AMBEL Ragweed, Common [2] = experiment: Postemergence herbicidal evaluation, AMBEL; assay type: in vivo, Ambrosia artemisifolia, L.; details: postemergence spray, rated about two-three weeks after treatment
In short: as §1

CASOB Sicklepod [3] = experiment: Postemergence herbicidal evaluation, CASOB; assay type: in vivo, Cassia obtusifolia, L.; details: postemergence spray, rated about two-three weeks after treatment
In short: as §1

[4] = test system: CHEAL Lambsquarters, Common; experiment: Postemergence herbicidal evaluation, CHEAL; assay type: in vivo, Chenopodium album, L.; details: postemergence spray, rated about two-three weeks after treatment
In short: as §1

ECHOG Barnyardgrass [5] = experiment: Postemergence herbicidal evaluation, ECHOG; assay type: in vivo, Echinochloa crus-galli, (L.) Beau; details: postemergence spray, rated about two-three weeks after treatment
In short: as §1

GALAP Galium [6] = experiment: Postemergence herbicidal evaluation, GALAP; assay type: in vivo, Galium aparine; details: postemergence spray, rated about two-three weeks after treatment
In short: as §1

[7] = test system: IPOHE Morningglory, Ivyleaf; experiment: Postemergence herbicidal evaluation, IPOHE; assay type: in vivo, Ipomoea hederacea, (L.) Jacq.; details: postemergence spray, rated about two-three weeks after treatment
In short: as §1

SETVI Foxtail, Green [8] = experiment: Postemergence herbicidal evaluation, SETVI; assay type: in vivo, Setaria viridis, (L.) Beau; details: postemergence spray, rated about two-three weeks after treatment
In short: as §1

GLXMAW Soybean, Williams [9] = experiment: Postemergence herbicidal evaluation, GLXMAW; assay type: in vivo, Glycine max, (L.) Merr. cv Williams; details: postemergence spray, rated about two-three weeks after treatment
In short: as §1

[10] = test system: TRZAWR Wheat, Winter, cv Riband; experiment: Postemergence herbicidal evaluation, TRZAWR; assay type: in vivo, Triticum aestivum; details: postemergence spray, rated about two-three weeks after treatment
In short: as §1

ORYSAT Rice, Tebonnet [11] = experiment: Postemergence herbicidal evaluation, ORYSAT; assay type: in vivo, Oryza sativa, (L.); details: postemergence spray, rated about two-three weeks after treatment
In short: as §1

ZEAMX Corn, Field [12] = experiment: Postemergence herbicidal evaluation, ZEAMX; assay type: in vivo, Zea mays, L. (Sammel-Bezeichnung); details: postemergence spray, rated about two-three weeks after treatment
In short: as §1

ABUTH Velvetleaf [13] = experiment: Preemergence herbicidal evaluation, ABUTH; assay type: in vivo, Abutilon theophrasti, Medic.; details: preemergence
In short: (§2)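 Seeds mixed with potting soil in cups, then sprayed preemergence with aqueous acetone test solution at about 0.013 to 0.800 kg per hectare equivalent. Cups kept under standard greenhouse care; plants rated on a visual scale four to five weeks after treatment.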

AMBEL Ragweed, Common [14] = experiment: Preemergence herbicidal evaluation, AMBEL; assay type: in vivo, Ambrosia artemisifolia, L.; details: preemergence
In short: as §2

CASOB Sicklepod [15] = experiment: Preemergence herbicidal evaluation, CASOB; assay type: in vivo, Cassia obtusifolia, L.; details: preemergence
In short: as §2

[16] = test system: CHEAL Lambsquarters, Common; experiment: Preemergence herbicidal evaluation, CHEAL; assay type: in vivo, Chenopodium album, L.; details: preemergence
In short: as §2

ECHOG Barnyardgrass [17] = experiment: Preemergence herbicidal evaluation, ECHOG; assay type: in vivo, Echinochloa crus-galli, (L.) Beau; details: preemergence
In short: as §2

GALAP Galium [18] = experiment: Preemergence herbicidal evaluation, GALAP; assay type: in vivo, Galium aparine; details: preemergence
In short: as §2

[19] = test system: IPOHE Morningglory, Ivyleaf; experiment: Preemergence herbicidal evaluation, IPOHE; assay type: in vivo, Ipomoea hederacea, (L.) Jacq.; details: preemergence
In short: as §2

SETVI Foxtail, Green [20] = experiment: Preemergence herbicidal evaluation, SETVI; assay type: in vivo, Setaria viridis, (L.) Beau; details: preemergence
In short: as §2

GLXMAW Soybean, Williams [21] = experiment: Preemergence herbicidal evaluation, GLXMAW; assay type: in vivo, Glycine max, (L.) Merr. cv Williams; details: preemergence
In short: as §2

[22] = test system: TRZAWR Wheat, Winter, cv Riband; experiment: Preemergence herbicidal evaluation, TRZAWR; assay type: in vivo, Triticum aestivum; details: preemergence
In short: as §2

ORYSAT Rice, Tebonnet [23] = experiment: Preemergence herbicidal evaluation, ORYSAT; assay type: in vivo, Oryza sativa, (L.); details: preemergence
In short: as §2

ZEAMX Corn, Field [24] = experiment: Preemergence herbicidal evaluation, ZEAMX; assay type: in vivo, Zea mays, L. (Sammel-Bezeichnung); details: preemergence
In short: as §2

Structure (SMILES): Cc1ccc(-n2nnc3cc(F)c(-n4c(=O)cc(C(F)(F)F)n(C)c4=O)cc32)cc1C [Example 23]
- Postemergence herbicidal rating ABUTH (ABUTH Velvetleaf [1]; 0.008 kg/ha): 9.0
- Postemergence herbicidal rating ABUTH (ABUTH Velvetleaf [1]; 0.016 kg/ha): 9.0
- Postemergence herbicidal rating ABUTH (ABUTH Velvetleaf [1]; 0.032 kg/ha): 9.0
- Postemergence herbicidal rating ABUTH (ABUTH Velvetleaf [1]; 0.062 kg/ha): 9.0
- Postemergence herbicidal rating AMBEL (AMBEL Ragweed, Common [2]; 0.008 kg/ha): 0.0
- Postemergence herbicidal rating AMBEL (AMBEL Ragweed, Common [2]; 0.016 kg/ha): 0.0
- Postemergence herbicidal rating AMBEL (AMBEL Ragweed, Common [2]; 0.032 kg/ha): 4.0
- Postemergence herbicidal rating AMBEL (AMBEL Ragweed, Common [2]; 0.062 kg/ha): 9.0
- Postemergence herbicidal rating CASOB (CASOB Sicklepod [3]; 0.008 kg/ha): 0.0
- Postemergence herbicidal rating CASOB (CASOB Sicklepod [3]; 0.016 kg/ha): 0.0
- Postemergence herbicidal rating CASOB (CASOB Sicklepod [3]; 0.032 kg/ha): 0.0
- Postemergence herbicidal rating CASOB (CASOB Sicklepod [3]; 0.062 kg/ha): 3.0
- Postemergence herbicidal rating CHEAL ([4]; 0.008 kg/ha): 3.0
- Postemergence herbicidal rating CHEAL ([4]; 0.032 kg/ha): 4.0
- Postemergence herbicidal rating CHEAL ([4]; 0.062 kg/ha): 9.0
- Postemergence herbicidal rating ECHCG (ECHOG Barnyardgrass [5]; 0.008 kg/ha): 0.0
- Postemergence herbicidal rating ECHCG (ECHOG Barnyardgrass [5]; 0.016 kg/ha): 0.0
- Postemergence herbicidal rating ECHCG (ECHOG Barnyardgrass [5]; 0.032 kg/ha): 0.0
- Postemergence herbicidal rating ECHCG (ECHOG Barnyardgrass [5]; 0.062 kg/ha): 0.0
- Postemergence herbicidal rating GALAP (GALAP Galium [6]; 0.008 kg/ha): 0.0
- Postemergence herbicidal rating GALAP (GALAP Galium [6]; 0.016 kg/ha): 2.0
- Postemergence herbicidal rating GALAP (GALAP Galium [6]; 0.032 kg/ha): 2.0
- Postemergence herbicidal rating GALAP (GALAP Galium [6]; 0.062 kg/ha): 2.0
- Postemergence herbicidal rating IPOHE ([7]; 0.008 kg/ha): 2.0
- Postemergence herbicidal rating IPOHE ([7]; 0.016 kg/ha): 9.0
- Postemergence herbicidal rating IPOHE ([7]; 0.032 kg/ha): 9.0
- Postemergence herbicidal rating IPOHE ([7]; 0.062 kg/ha): 9.0
- Postemergence herbicidal rating SETVI (SETVI Foxtail, Green [8]; 0.008 kg/ha): 7.0
- Postemergence herbicidal rating SETVI (SETVI Foxtail, Green [8]; 0.016 kg/ha): 9.0
- Postemergence herbicidal rating SETVI (SETVI Foxtail, Green [8]; 0.032 kg/ha): 9.0
- Postemergence herbicidal rating SETVI (SETVI Foxtail, Green [8]; 0.062 kg/ha): 9.0
- Postemergence herbicidal rating GLXMAW (GLXMAW Soybean, Williams [9]; 0.008 kg/ha): 3.5
- Postemergence herbicidal rating GLXMAW (GLXMAW Soybean, Williams [9]; 0.016 kg/ha): 4.5
- Postemergence herbicidal rating GLXMAW (GLXMAW Soybean, Williams [9]; 0.032 kg/ha): 4.5
- Postemergence herbicidal rating GLXMAW (GLXMAW Soybean, Williams [9]; 0.062 kg/ha): 4.5
- Postemergence herbicidal rating TRZAWR ([10]; 0.008 kg/ha): 4.0
- Postemergence herbicidal rating TRZAWR ([10]; 0.016 kg/ha): 4.5
- Postemergence herbicidal rating TRZAWR ([10]; 0.032 kg/ha): 5.5
- Postemergence herbicidal rating TRZAWR ([10]; 0.062 kg/ha): 6.5
- Postemergence herbicidal rating ORYSAT (ORYSAT Rice, Tebonnet [11]; 0.008 kg/ha): 2.5
- Postemergence herbicidal rating ORYSAT (ORYSAT Rice, Tebonnet [11]; 0.016 kg/ha): 3.0
- Postemergence herbicidal rating ORYSAT (ORYSAT Rice, Tebonnet [11]; 0.032 kg/ha): 3.5
- Postemergence herbicidal rating ORYSAT (ORYSAT Rice, Tebonnet [11]; 0.062 kg/ha): 4.0
- Postemergence herbicidal rating ZEAMX (ZEAMX Corn, Field [12]; 0.008 kg/ha): 5.5
- Postemergence herbicidal rating ZEAMX (ZEAMX Corn, Field [12]; 0.016 kg/ha): 7.0
- Postemergence herbicidal rating ZEAMX (ZEAMX Corn, Field [12]; 0.032 kg/ha): 8.0
- Postemergence herbicidal rating ZEAMX (ZEAMX Corn, Field [12]; 0.062 kg/ha): 8.5
- ABUTH herbicidal rating (ABUTH Velvetleaf [13]; rate 0.016 kg/ha): 0.0
- ABUTH herbicidal rating (ABUTH Velvetleaf [13]; rate 0.032 kg/ha): 3.0
- ABUTH herbicidal rating (ABUTH Velvetleaf [13]; rate 0.062 kg/ha): 9.0
- ABUTH herbicidal rating (ABUTH Velvetleaf [13]; rate 0.125 kg/ha): 9.0
- AMBEL herbicidal rating (AMBEL Ragweed, Common [14]; rate 0.016 kg/ha): 0.0
- AMBEL herbicidal rating (AMBEL Ragweed, Common [14]; rate 0.032 kg/ha): 0.0
- AMBEL herbicidal rating (AMBEL Ragweed, Common [14]; rate 0.062 kg/ha): 0.0
- AMBEL herbicidal rating (AMBEL Ragweed, Common [14]; rate 0.125 kg/ha): 1.0
- CASOB herbicidal rating (CASOB Sicklepod [15]; rate 0.016 kg/ha): 0.0
- CASOB herbicidal rating (CASOB Sicklepod [15]; rate 0.032 kg/ha): 0.0
- CASOB herbicidal rating (CASOB Sicklepod [15]; rate 0.062 kg/ha): 0.0
- CASOB herbicidal rating (CASOB Sicklepod [15]; rate 0.125 kg/ha): 0.0
- CHEAL herbicidal rating ([16]; rate 0.016 kg/ha): 0.0
- CHEAL herbicidal rating ([16]; rate 0.032 kg/ha): 7.0
- CHEAL herbicidal rating ([16]; rate 0.062 kg/ha): 9.0
- CHEAL herbicidal rating ([16]; rate 0.125 kg/ha): 9.0
- ECHCG herbicidal rating (ECHOG Barnyardgrass [17]; rate 0.016 kg/ha): 0.0
- ECHCG herbicidal rating (ECHOG Barnyardgrass [17]; rate 0.032 kg/ha): 2.0
- ECHCG herbicidal rating (ECHOG Barnyardgrass [17]; rate 0.062 kg/ha): 5.0
- ECHCG herbicidal rating (ECHOG Barnyardgrass [17]; rate 0.125 kg/ha): 8.0
- GALAP herbicidal rating (GALAP Galium [18]; rate 0.016 kg/ha): 0.0
- GALAP herbicidal rating (GALAP Galium [18]; rate 0.032 kg/ha): 0.0
- GALAP herbicidal rating (GALAP Galium [18]; rate 0.062 kg/ha): 0.0
- GALAP herbicidal rating (GALAP Galium [18]; rate 0.125 kg/ha): 0.0
- IPOHE herbicidal rating ([19]; rate 0.016 kg/ha): 0.0
- IPOHE herbicidal rating ([19]; rate 0.032 kg/ha): 0.0
- IPOHE herbicidal rating ([19]; rate 0.062 kg/ha): 0.0
- IPOHE herbicidal rating ([19]; rate 0.125 kg/ha): 1.0
- SETVI herbicidal rating (SETVI Foxtail, Green [20]; rate 0.016 kg/ha): 3.0
- SETVI herbicidal rating (SETVI Foxtail, Green [20]; rate 0.032 kg/ha): 8.0
- SETVI herbicidal rating (SETVI Foxtail, Green [20]; rate 0.062 kg/ha): 9.0
- SETVI herbicidal rating (SETVI Foxtail, Green [20]; rate 0.125 kg/ha): 9.0
- GLXMAW herbicidal rating (GLXMAW Soybean, Williams [21]; rate 0.016 kg/ha): 0.0
- GLXMAW herbicidal rating (GLXMAW Soybean, Williams [21]; rate 0.032 kg/ha): 0.0
- GLXMAW herbicidal rating (GLXMAW Soybean, Williams [21]; rate 0.062 kg/ha): 0.0
- GLXMAW herbicidal rating (GLXMAW Soybean, Williams [21]; rate 0.125 kg/ha): 0.0
- TRZAWR herbicidal rating ([22]; rate 0.016 kg/ha): 0.0
- TRZAWR herbicidal rating ([22]; rate 0.032 kg/ha): 0.0
- TRZAWR herbicidal rating ([22]; rate 0.062 kg/ha): 1.0
- TRZAWR herbicidal rating ([22]; rate 0.125 kg/ha): 3.0
- ORYSAT herbicidal rating (ORYSAT Rice, Tebonnet [23]; rate 0.016 kg/ha): 0.0
- ORYSAT herbicidal rating (ORYSAT Rice, Tebonnet [23]; rate 0.032 kg/ha): 0.0
- ORYSAT herbicidal rating (ORYSAT Rice, Tebonnet [23]; rate 0.062 kg/ha): 0.0
- ORYSAT herbicidal rating (ORYSAT Rice, Tebonnet [23]; rate 0.125 kg/ha): 0.0
- ZEAMX herbicidal rating (ZEAMX Corn, Field [24]; rate 0.016 kg/ha): 0.0
- ZEAMX herbicidal rating (ZEAMX Corn, Field [24]; rate 0.032 kg/ha): 0.0
- ZEAMX herbicidal rating (ZEAMX Corn, Field [24]; rate 0.062 kg/ha): 0.0
- ZEAMX herbicidal rating (ZEAMX Corn, Field [24]; rate 0.125 kg/ha): 4.0
